Reference: the NIST ThermoML archive (doi:10.1016/j.tca.2015.06.017)

Assay: xn = mol fraction of the nth substance listed
Conditions: Liquid, Vibrating tube method

CC(C)CCl [1-chloro-2-methylpropane] + CCCCCCC
mass density [kg/m3]
Conditions	293.15 K	298.15 K
100 kPa, x2 = 0.0531	–	857.37
100 kPa, x2 = 0.1023	–	844.58
100 kPa, x2 = 0.2009	–	820.42
100 kPa, x2 = 0.3009	–	797.89
100 kPa, x2 = 0.3981	–	777.63
100 kPa, x2 = 0.4986	–	758.2
100 kPa, x2 = 0.5998	–	740.04
100 kPa, x2 = 0.7038	–	722.73
100 kPa, x2 = 0.7993	–	707.93
100 kPa, x2 = 0.8995	–	693.43
100 kPa, x2 = 0.9507	–	686.38
2000 kPa, x2 = 0.0531	–	859.45
2000 kPa, x2 = 0.1023	–	846.69
2000 kPa, x2 = 0.2009	–	822.61
2000 kPa, x2 = 0.3009	–	800.07
2000 kPa, x2 = 0.3981	–	779.77
2000 kPa, x2 = 0.4986	–	760.3
2000 kPa, x2 = 0.5998	–	742.16
2000 kPa, x2 = 0.7038	–	724.79
2000 kPa, x2 = 0.7993	–	709.96
2000 kPa, x2 = 0.8995	–	695.5
2000 kPa, x2 = 0.9507	–	688.51
5000 kPa, x2 = 0.0531	–	862.78
5000 kPa, x2 = 0.1023	–	849.99
5000 kPa, x2 = 0.2009	–	825.85
5000 kPa, x2 = 0.3009	–	803.24
5000 kPa, x2 = 0.3981	–	782.87
5000 kPa, x2 = 0.4986	–	763.35
5000 kPa, x2 = 0.5998	–	745.14
5000 kPa, x2 = 0.7038	–	727.73
5000 kPa, x2 = 0.7993	–	712.83
5000 kPa, x2 = 0.8995	–	698.32
5000 kPa, x2 = 0.9507	–	691.31
7000 kPa, x2 = 0.0531	–	864.94
7000 kPa, x2 = 0.1023	–	852.13
7000 kPa, x2 = 0.2009	–	827.95
7000 kPa, x2 = 0.3009	–	805.31
7000 kPa, x2 = 0.3981	–	784.94
7000 kPa, x2 = 0.4986	–	765.38
7000 kPa, x2 = 0.5998	–	747.13
7000 kPa, x2 = 0.7038	–	729.69
7000 kPa, x2 = 0.7993	–	714.76
7000 kPa, x2 = 0.8995	–	700.23
7000 kPa, x2 = 0.9507	–	693.2
10000 kPa, x2 = 0.0531	–	868.11
10000 kPa, x2 = 0.1023	–	855.26
10000 kPa, x2 = 0.2009	–	831
10000 kPa, x2 = 0.3009	–	808.29
10000 kPa, x2 = 0.3981	–	787.84
10000 kPa, x2 = 0.4986	–	768.21
10000 kPa, x2 = 0.5998	–	749.91
10000 kPa, x2 = 0.7038	–	732.42
10000 kPa, x2 = 0.7993	–	717.45
10000 kPa, x2 = 0.8995	–	702.88
10000 kPa, x2 = 0.9507	–	695.78
20000 kPa, x2 = 0.0531	–	877.88
20000 kPa, x2 = 0.1023	–	865.08
20000 kPa, x2 = 0.2009	–	840.5
20000 kPa, x2 = 0.3009	–	817.71
20000 kPa, x2 = 0.3981	–	797.11
20000 kPa, x2 = 0.4986	781.73	777.37
20000 kPa, x2 = 0.5998	763.14	758.88
20000 kPa, x2 = 0.7038	745.41	741.28
20000 kPa, x2 = 0.7993	730.25	726.13
20000 kPa, x2 = 0.8995	715.39	711.41
20000 kPa, x2 = 0.9507	708.22	704.25
30000 kPa, x2 = 0.0531	891.52	886.78
30000 kPa, x2 = 0.1023	878.34	873.9
30000 kPa, x2 = 0.2009	853.68	849.18
30000 kPa, x2 = 0.3009	830.55	826.21
30000 kPa, x2 = 0.3981	809.73	805.55
30000 kPa, x2 = 0.4986	789.74	785.57
30000 kPa, x2 = 0.5998	771.06	766.94
30000 kPa, x2 = 0.7038	753.18	749.15
30000 kPa, x2 = 0.7993	737.88	733.94
30000 kPa, x2 = 0.8995	722.93	719.07
30000 kPa, x2 = 0.9507	715.7	711.84
40000 kPa, x2 = 0.0531	899.47	895.02
40000 kPa, x2 = 0.1023	886.28	882.04
40000 kPa, x2 = 0.2009	861.43	857.18
40000 kPa, x2 = 0.3009	838.11	834.09
40000 kPa, x2 = 0.3981	817.16	813.22
40000 kPa, x2 = 0.4986	797.04	793.13
40000 kPa, x2 = 0.5998	778.18	774.36
40000 kPa, x2 = 0.7038	760.15	756.46
40000 kPa, x2 = 0.7993	744.84	741.11
40000 kPa, x2 = 0.8995	729.76	726.12
40000 kPa, x2 = 0.9507	722.48	718.83
50000 kPa, x2 = 0.0531	906.83	902.53
50000 kPa, x2 = 0.1023	893.73	889.53
50000 kPa, x2 = 0.2009	868.58	864.58
50000 kPa, x2 = 0.3009	845.22	841.36
50000 kPa, x2 = 0.3981	824.17	820.34
50000 kPa, x2 = 0.4986	803.9	800.16
50000 kPa, x2 = 0.5998	784.93	781.27
50000 kPa, x2 = 0.7038	766.85	763.24
50000 kPa, x2 = 0.7993	751.39	747.78
50000 kPa, x2 = 0.8995	736.21	732.67
50000 kPa, x2 = 0.9507	728.86	725.32
60000 kPa, x2 = 0.0531	913.81	909.64
60000 kPa, x2 = 0.1023	900.5	896.54
60000 kPa, x2 = 0.2009	875.39	871.48
60000 kPa, x2 = 0.3009	851.83	848.21
60000 kPa, x2 = 0.3981	830.75	827.13
60000 kPa, x2 = 0.4986	810.36	806.82
60000 kPa, x2 = 0.5998	791.29	787.83
60000 kPa, x2 = 0.7038	773.13	769.72
60000 kPa, x2 = 0.7993	757.58	754.16
60000 kPa, x2 = 0.8995	742.31	738.97
60000 kPa, x2 = 0.9507	734.9	731.55
65000 kPa, x2 = 0.0531	917.1	913.06
65000 kPa, x2 = 0.1023	903.79	899.93
65000 kPa, x2 = 0.2009	878.75	874.82
65000 kPa, x2 = 0.3009	855.14	851.5
65000 kPa, x2 = 0.3981	833.84	830.36
65000 kPa, x2 = 0.4986	813.47	810
65000 kPa, x2 = 0.5998	794.31	790.97
65000 kPa, x2 = 0.7038	775.99	772.79
65000 kPa, x2 = 0.7993	760.39	757.19
65000 kPa, x2 = 0.8995	745.06	741.93
65000 kPa, x2 = 0.9507	737.63	734.52
